Laboratory results: patent US20180071261A1, “CYCLOCREATINE MICROSUSPENSION” (Lumos Pharma, Inc., priority 2015, published 2018)
≈ marks a conversion by molar mass, not a printed value.

Legend:
Assay type in all cases: physicochemical
[1] = Drug stability: cyclocreatine degradation after milling
Protocol: (§1) The cyclocreatine samples were analyzed before and after milling (Example 1) to assess the effect of milling on the drug stability.
After milling for about 45 min, the particle size of the micronized API appeared to have been reduced uniformly for the entire batch of sample.

[2] = Particle size analysis before and after milling; conditions: for Particle size: 200 mg/mL, 1.0 mm zirconia beads, 3344 rpm
Text: To a milling vessel size of 0.6 liter of a Glen Dyno Mill about 70% volume of zirconia grinding media was charged. An agitator shaft activated the media, creating shearing and impacting forces. The rotation of the agitator imparted energy to the surrounding media and fractures the cyclocreatine solids suspended in water, resulting in overall reduction in particle size.
Water was charged into a stainless steel vessel equipped with overhead agitator and blanketed with nitrogen followed by the addition of cyclocreatine. The mixture was pumped via a peristaltic pump into the grinding chamber. The milled sample exiting the chamber was collected in another stainless steel vessel (also equipped with an overhead agitator and blanked with nitrogen) until the first vessel was empty at which time a three way valve was switched as to continue pumping the mixture in one of the vessels into the grinding chamber. The drug concentration in the suspension ranged from 10-20% w/v. […] The rotation of the disk accelerated the milling media radially. The suspension mixture flowed axially through the milling chamber where the shear forces generated during impaction of the milling media with the solid particles provided the energy input to fracture the drug into nanometer-sized particles. Up to 40% nanoparticles were observed. In another embodiment, up to about 10% nanoparticles by volume were observed. The temperature inside the grinding chamber was controlled by circulating coolant through the outer jacket. The resultant microsuspension had good flow characteristics and appeared milky (FIG. 2).
For example a 200 mg/mL solid concentration of formulation processed in a 0.6 liter sized grinding chamber filled with 1.0 mm diameter zirconia beads and a 3344 rpm agitator speed for a total of two hours produced samples with similar final particle size in three repeated experiments. In all instances, the particle size decreased markedly within 30 min processing time from the initial 400 μm to about 80 μm, but with little change observed between 30 and 120 min. Further prolonging in the milling times was not beneficial, because decreased particle sizes were not achieved. In addition to particle size analysis (FIG. 3), the SEM micrographs (FIG. 4) further confirmed that the milling process as effective in converting the original cyclocreatine particles into the low micron range.
as §1

[3] = Stability test: cyclocreatine concentration in suspension formulation over 40 days; conditions: suspension in water (~200 mg/mL)
[4] = Solubility of cyclocreatine in water
Protocol: The collected micronized API was then formulated with water to form an aqueous microsuspension. 20.0 grams of cyclocreatine was weighed into a graduated vessel. Approximately 80 mL of water was added and the solution mixed to allow partial dissolution. After mixing for 5 minutes, water was added to dilute to a final volume of 100 mL.

[5] = by process condition (un-milled vs wet bead mill)

Cyclocreatine degradation after milling process (%) [1, 5]: 0%
Stability during the milling process ([1]; dry milling (pin mill), about 45 min): stable
Nanoparticles observed ([2]; after wet bead milling): Up to 40%
Nanoparticles by volume observed ([2]; after wet bead milling, another embodiment, by volume): up to 10%
Particle Size (μm, Volume weighted average) [2, 5]: 400 μm
Particle size ([2]; initial, before wet milling): 400 μm
Particle size ([2]; within 30 min processing time): about 80 μm
Cyclocreatine concentration in the suspension sample ([3]; day 0): 177.1 ± 0.5 mg/g
Cyclocreatine concentration in the suspension sample ([3]; day 7): 174.6 ± 1.0 mg/g
Cyclocreatine concentration in the suspension sample ([3]; day 11): 175.7 ± 1.0 mg/g
Cyclocreatine concentration in the suspension sample ([3]; day 26): 176.9 ± 0.5 mg/g
Cyclocreatine concentration in the suspension sample ([3]; day 40): 180.1 ± 1.5 mg/g
solubility [4]: 17 mg/mL (≈ 119 mM)
Compound: NC1=NCCN1CC(=O)O [Cyclocreatine, cyclocreatine]
